We go through 22 molecules from US10034861B2 (priority 2016, dated 2018).

Read-outs that look alike come from different tables or passages of the source.

One experiment concerns the target PDE1C (Homo sapiens (Human), UniProt Q14123). As to the kind of experiment: biochemical. It counts as biochemical. The source says:
(§1) Table 1 lists the IC50 value for inhibition of PDE1 by the compounds of the invention. […] PDE1 assays are described in the Experimental Section.

Another experiment addresses PDE1A (Homo sapiens (Human), UniProt P54750). As to the kind of experiment: biochemical. The class given is biochemical. Conditions: 15 nM tritium labelled cAMP, 1 hr at room temperature, SPA beads.
Description: as §1

Setting [1] is: 15 nM tritium labelled cAMP, 1 hr at room temperature, SPA beads.

PDE1A, sequence (P54750 whole entry): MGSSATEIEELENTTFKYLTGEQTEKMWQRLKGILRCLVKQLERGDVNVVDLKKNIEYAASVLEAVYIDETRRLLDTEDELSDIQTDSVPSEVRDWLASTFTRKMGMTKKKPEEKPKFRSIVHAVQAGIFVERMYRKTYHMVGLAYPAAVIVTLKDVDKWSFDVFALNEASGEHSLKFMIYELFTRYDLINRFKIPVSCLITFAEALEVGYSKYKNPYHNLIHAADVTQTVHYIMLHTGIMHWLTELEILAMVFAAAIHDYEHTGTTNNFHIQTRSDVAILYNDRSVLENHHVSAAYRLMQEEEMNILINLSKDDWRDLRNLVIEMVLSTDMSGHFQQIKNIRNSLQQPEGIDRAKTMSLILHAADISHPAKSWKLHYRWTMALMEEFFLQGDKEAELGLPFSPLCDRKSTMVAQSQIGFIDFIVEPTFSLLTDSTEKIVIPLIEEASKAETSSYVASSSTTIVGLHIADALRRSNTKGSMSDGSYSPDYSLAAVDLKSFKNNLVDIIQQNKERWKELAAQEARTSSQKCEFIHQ
PDE1C, sequence (Q14123 whole entry): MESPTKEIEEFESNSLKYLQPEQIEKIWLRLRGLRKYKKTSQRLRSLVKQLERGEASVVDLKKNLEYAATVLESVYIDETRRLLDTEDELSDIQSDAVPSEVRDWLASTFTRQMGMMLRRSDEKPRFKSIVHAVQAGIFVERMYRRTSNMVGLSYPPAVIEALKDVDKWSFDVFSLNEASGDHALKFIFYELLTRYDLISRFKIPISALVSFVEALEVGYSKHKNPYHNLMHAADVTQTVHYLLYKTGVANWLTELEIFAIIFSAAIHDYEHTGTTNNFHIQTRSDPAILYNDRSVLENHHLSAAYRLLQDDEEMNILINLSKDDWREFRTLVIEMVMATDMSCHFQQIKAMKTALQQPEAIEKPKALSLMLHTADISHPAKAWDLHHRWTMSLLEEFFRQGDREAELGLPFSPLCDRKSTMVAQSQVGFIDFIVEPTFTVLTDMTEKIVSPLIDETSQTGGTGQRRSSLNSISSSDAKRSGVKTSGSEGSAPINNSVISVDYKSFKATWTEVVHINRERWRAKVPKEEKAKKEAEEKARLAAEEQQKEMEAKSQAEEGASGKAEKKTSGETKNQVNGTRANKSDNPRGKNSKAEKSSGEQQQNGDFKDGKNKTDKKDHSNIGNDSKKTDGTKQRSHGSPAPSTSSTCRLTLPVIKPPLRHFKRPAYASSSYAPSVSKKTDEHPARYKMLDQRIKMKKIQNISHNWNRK

`CCOc1ncccc1-c1cc(NCc2nnn(C)n2)c2c(n1)c(C)nn2C(C)C` [Example 8, 5-(2-ethoxy-3-pyridyl)-1-isopropyl-3-methyl-N-[(2-methyltetrazol-5-yl)methyl]pyrazolo[4,3-b]pyridin-7-amine]: the half-maximal inhibitory concentration (IC50) against PDE1C (setting [1]) is 0.0089 µM; against PDE1A, 0.0029 µM.
The like results for `CCCOc1ncccc1-c1cc(NCc2cn[nH]c2)c2c(n1)c(C)nn2C(C)C` [Example 196, 1-isopropyl-3-methyl-5-(2-propoxy-3-pyridyl)-N-(1H-pyrazol-4-ylmethyl)pyrazolo[4,3-b]pyridin-7-amine] were, in that order, 0.027 µM and 0.018 µM.
The like results for `CCOc1ncccc1-c1cc(NCc2nnco2)c2c(n1)c(C)nn2C(C)C` [Example 59, 5-(2-ethoxy-3-pyridyl)-1-isopropyl-3-methyl-N-(1,3,4-oxadiazol-2-ylmethyl)pyrazolo[4,3-b]pyridin-7-amine] were, in that order, 0.12 µM and 0.055 µM.
The like results for `CCOc1ncccc1-c1cc(NCc2noc(C)n2)c2c(cnn2C(C)C)n1` [Example 43, 5-(2-ethoxy-3-pyridyl)-1-isopropyl-N-[(5-methyl-1,2,4-oxadiazol-3-yl)methyl]pyrazolo[4,3-b]pyridin-7-amine] were, in that order, 0.08 µM and 0.03 µM.
For `CCOc1ncccc1-c1cc(NCc2ncccn2)c2c(n1)c(C)nn2C(C)C` [Example 74, 5-(2-ethoxy-3-pyridyl)-1-isopropyl-3-methyl-N-(pyrimidin-2-ylmethyl)pyrazolo[4,3-b]pyridin-7-amine], the half-inhibitory concentration (IC50) at PDE1C (setting [1]) was 0.0081 µM; against PDE1A, 0.0021 µM.
The like results for `CCOc1ncccc1-c1cc(OCc2cnc(C)o2)c2c(n1)c(C)nn2C(C)C` [Example 72, 5-[[5-(2-ethoxy-3-pyridyl)-1-isopropyl-3-methyl-pyrazolo[4,3-b]pyridin-7-yl]oxymethyl]-2-methyl-oxazole] were, in that order, 0.039 µM and 0.014 µM.
The like results for `CCOc1ncccc1-c1cc(NCc2cc(C)no2)c2c(cnn2C(C)C)n1` [Example 42, 5-(2-ethoxy-3-pyridyl)-1-isopropyl-N-[(3-methylisoxazol-5-yl)methyl]pyrazolo[4,3-b]pyridin-7-amine] were, in that order, 0.18 µM and 0.082 µM.
In the case of `CCOc1ncccc1-c1cc(NCc2cc[nH]n2)c2c(n1)c(C)nn2C(C)CC` (single isomer, unassigned) [Example 120, 5-(2-ethoxy-3-pyridyl)-3-methyl-1-[1-methylpropyl]-N-(1H-pyrazol-3-ylmethyl)pyrazolo[4,3-b]pyridin-7-amine], at PDE1C, the IC50 worked out at 0.0076 µM.
On to `CCOc1ncccc1-c1cc(NCc2cc[nH]n2)c2c(cnn2C(C)CC)n1` (single isomer, unassigned) [Example 137, 5-(2-ethoxy-3-pyridyl)-1-[1-methylpropyl]-N-(1H-pyrazol-3-ylmethyl)pyrazolo[4,3-b]pyridin-7-amine], for which the IC50 is 0.34 µM against PDE1C and 0.18 µM against PDE1A.
As to `CCOc1ncccc1-c1cc(NCc2ccncn2)c2c(n1)c(C)nn2C(C)C` [Example 73, 5-(2-ethoxy-3-pyridyl)-1-isopropyl-3-methyl-N-(pyrimidin-4-ylmethyl)pyrazolo[4,3-b]pyridin-7-amine], the values for the IC50 against PDE1C (setting [1]) and against PDE1A were 0.14 µM and 0.081 µM, respectively.
The like results for `CCOc1ncccc1-c1cc(NCc2cc(C)n(C)n2)c2c(cnn2C(C)C)n1` [Example 44, N-[(1,5-dimethylpyrazol-3-yl)methyl]-5-(2-ethoxy-3-pyridyl)-1-isopropyl-pyrazolo[4,3-b]pyridin-7-amine] were, in that order, 0.07 µM and 0.019 µM.
Take `Cc1coc(-c2cc(NCc3cnn(C)c3)c3c(n2)c(C)nn3C(C)C)n1` [Example 202, 1-isopropyl-3-methyl-N-((1-methyl-1H-pyrazol-4-yl)methyl)-5-(4-methyloxazol-2-yl)-1H-pyrazolo[4,3-b]pyridin-7-amine]: the IC50 was 0.17 µM against PDE1C (setting [1]) and 0.092 µM against PDE1A.
The like results for `CCCn1cc(CNc2cc(-c3cccnc3OCC)nc3c(C)nn(C(C)C)c23)cn1` [Example 110, 5-(2-ethoxy-3-pyridyl)-1-isopropyl-3-methyl-N-[(1-propylpyrazol-4-yl)methyl]pyrazolo[4,3-b]pyridin-7-amine] were, in that order, 0.0085 µM and 0.011 µM.
`CCOc1ncccc1-c1cc(NCc2nncn2C)c2c(n1)c(C)nn2C(C)C` [Example 162, 5-(2-ethoxy-3-pyridyl)-1-isopropyl-3-methyl-N-[(4-methyl-1,2,4-triazol-3-yl)methyl]pyrazolo[4,3-b]pyridin-7-amine]: the half-maximal inhibitory concentration (IC50) against PDE1C (setting [1]) stood at 0.18 µM; at PDE1A it was 0.1 µM.
In turn, `CCC1COC(=O)N1c1cc(NCc2cnn(C)c2)c2c(n1)c(C)nn2C(C)C` (centres unmarked) [Example 156, 4-ethyl-3-[1-isopropyl-3-methyl-7-[(1-methylpyrazol-4-yl)methylamino]pyrazolo[4,3-b]pyridin-5-yl]oxazolidin-2-one] had an IC50 against PDE1C (setting [1]) of 0.0051 µM.
On to `Cc1nn(C(C)C)c2c(NCc3cccnc3C(F)(F)F)cc(-c3ccc[nH]c3=O)nc12` [Example 193, 3-[1-isopropyl-3-methyl-7-[[2-(trifluoromethyl)-3-pyridyl]methylamino]pyrazolo[4,3-b]pyridin-5-yl]-1H-pyridin-2-one], for which the half-inhibitory concentration (IC50) was found to be 0.88 µM on PDE1C (setting [1]) and 0.32 µM at PDE1A.
The like results for `CCOc1ncccc1-c1cc(NCc2cnc(C)o2)c2c(n1)c(C)nn2C(C)C` [Example 4, 5-(2-ethoxy-3-pyridyl)-1-isopropyl-3-methyl-N-[(2-methyloxazol-5-yl)methyl]pyrazolo[4,3-b]pyridin-7-amine] were, in that order, 0.019 µM and 0.0086 µM.
The like results for `CCCOc1ncccc1-c1cc(NCc2cc[nH]n2)c2c(n1)c(C)nn2C(C)CC` (single isomer, unassigned) [Example 135, 3-methyl-1-[1-methylpropyl]-5-(2-propoxy-3-pyridyl)-N-(1H-pyrazol-3-ylmethyl)pyrazolo[4,3-b]pyridin-7-amine] were, in that order, 0.0036 µM and 0.0019 µM.
Molecule `COc1ncccc1CNc1cc(-c2cccnc2OC)nc2c(C)nn(C(C)C)c12` [Example 95, 1-isopropyl-5-(2-methoxy-3-pyridyl)-N-[(2-methoxy-3-pyridyl)methyl]-3-methyl-pyrazolo[4,3-b]pyridin-7-amine] gave a concentration for half-maximal inhibition (IC50) against PDE1A of 0.042 µM.
Take `CCOc1ncccc1-c1cc(NCc2csc(C)n2)c2c(n1)c(C)nn2C(C)C` [Example 11, 5-(2-ethoxy-3-pyridyl)-1-isopropyl-3-methyl-N-[(2-methylthiazol-4-yl)methyl]pyrazolo[4,3-b]pyridin-7-amine]: the IC50 against PDE1C (setting [1]) was 0.03 µM; on PDE1A, 0.0096 µM.
Consider `CCOc1ncccc1-c1cc(NCc2nnc(C)o2)c2c(cnn2C(C)CC)n1` (single isomer, unassigned) [Example 139, 5-(2-ethoxy-3-pyridyl)-N-[(5-methyl-1,3,4-oxadiazol-2-yl)methyl]-1-[1-methylpropyl]pyrazolo[4,3-b]pyridin-7-amine], for which the 50% inhibitory concentration (IC50) against PDE1C is 0.53 µM; against PDE1A, 0.33 µM.
As for `CCOc1ncccc1-c1cc(NCc2nccc(C)n2)c2c(n1)c(C)nn2C(C)C` [Example 75, 5-(2-ethoxy-3-pyridyl)-1-isopropyl-3-methyl-N-[(4-methylpyrimidin-2-yl)methyl]pyrazolo[4,3-b]pyridin-7-amine], the concentration for half-maximal inhibition (IC50) stood at 0.033 µM on PDE1C (setting [1]) and 0.0099 µM against PDE1A.
